The results in this text go back to the PolyMetriX glass transition set.

The structures appear in SMILES notation.

The compound `*/C=C/C1CCC(*)C1` (repeat unit) had a glass transition temperature of 31.00 °C. `*Oc1ccc(C(=O)c2cccc(C(=O)c3ccc(*)c(C(C)C)c3)c2)cc1CC` (repeat unit): the glass transition temperature is 136.00 °C. Take `*Oc1ccc(C(=O)c2cccc(C(=O)c3ccc(*)c(CC)c3)c2)cc1CC` (repeat unit): the glass transition temperature worked out at 126.00 °C. As to `*Oc1ccc(C(=O)c2cccc(C(=O)c3ccc(*)cc3)c2)cc1` (repeat unit), the glass transition temperature was determined as 139.00 °C. As for `*Oc1ccc(C(=O)c2cccc(C(=O)c3ccc(Oc4cccc(Cc5cccc(*)c5)c4)cc3)c2)cc1` (repeat unit), the glass transition temperature turned out to be 114.00 °C.

Take `*c1ccc(OCCCOc2ccc(N3C(=O)c4ccc(-c5cccc6c5C(=O)N(*)C6=O)cc4C3=O)cc2)cc1` (repeat unit): the glass transition temperature is 237.50 °C.

Take `*c1ccc(Oc2cc3ccccc3cc2Oc2ccc(N3C(=O)c4ccc(S(=O)(=O)c5ccc6c(c5)C(=O)N(*)C6=O)cc4C3=O)cc2)cc1` (repeat unit): the glass transition temperature worked out at 275.00 °C. The compound `*c1ccc(Oc2ccc(C(=O)c3cccc(C(=O)c4ccc(Oc5ccc(N6C(=O)c7ccc(Oc8ccc9c(c8)C(=O)N(*)C9=O)cc7C6=O)cc5)cc4)c3)cc2)cc1` (repeat unit) registered a glass transition temperature of 208.00 °C. As for `*c1ccc(Oc2ccc(C(c3ccc(Oc4ccc(N5C(=O)c6ccc(-c7ccc8c(c7)C(=O)N(*)C8=O)cc6C5=O)cc4C(F)(F)F)cc3)(C(F)(F)F)C(F)(F)F)cc2)c(C(F)(F)F)c1` (repeat unit), the figure is 223.00 °C; as for `*c1ccc(Oc2ccc(N3C(=O)c4ccc([Si](C)(C)c5ccc6c(c5)C(=O)N(*)C6=O)cc4C3=O)cc2)cc1` (repeat unit), 274.00 °C. Regarding `*c1ccc(Oc2ccc(Oc3ccc(N4C(=O)c5ccc(-c6cccc7c6C(=O)N(*)C7=O)cc5C4=O)cc3)cc2)cc1` (repeat unit), the glass transition temperature came to 285.00 °C. Under `*c1ccc(Oc2ccc(S(=O)(=O)c3ccc(Oc4ccc(N5C(=O)c6ccc(S(=O)(=O)c7ccc8c(c7)C(=O)N(*)C8=O)cc6C5=O)cc4)cc3)cc2)cc1` (repeat unit) stands 274.00 °C; under `*c1ccc(Oc2cccc(N3C(=O)c4ccc(-c5ccc6c(c5)C(=O)N(*)C6=O)cc4C3=O)c2)cc1` (repeat unit), 259.00 °C; under `*c1ccc(Oc2cccc(Oc3ccc(N4C(=O)c5ccc(-c6ccc7c(c6)C(=O)N(*)C7=O)cc5C4=O)cc3)c2)cc1` (repeat unit), 234.00 °C. Under `*c1ccc(Oc2ccccc2Oc2ccc(N3C(=O)c4ccc(-c5ccc6c(c5)C(=O)N(*)C6=O)cc4C3=O)cc2C(F)(F)F)c(C(F)(F)F)c1` (repeat unit) stands 249.00 °C; under `*c1ccc(Sc2ccc(Sc3ccc(Sc4ccc(N5C(=O)c6ccc(-c7ccc8c(c7)C(=O)N(*)C8=O)cc6C5=O)cc4)cc3)cc2)cc1` (repeat unit), 227.10 °C; under `*c1ccc2c(c1)C(=O)N(c1ccc(OCCOCCOCCOCCOc3ccc(N4C(=O)c5ccc(C(*)(C(F)(F)F)C(F)(F)F)cc5C4=O)cc3)cc1)C2=O` (repeat unit), 140.00 °C. Under `*c1ccc2c(c1)C(=O)N(c1ccc(OCCOCCOCCOc3ccc(N4C(=O)c5ccc(C(*)(C(F)(F)F)C(F)(F)F)cc5C4=O)cc3)cc1)C2=O` (repeat unit) stands 166.00 °C. `*c1ccc2c(c1)C(=O)N(c1ccc(OCCOc3ccc(N4C(=O)c5ccc(C(*)(C(F)(F)F)C(F)(F)F)cc5C4=O)cc3)cc1)C2=O` (repeat unit) registered a glass transition temperature of 254.00 °C. On to `*c1ccc2c(c1)C(=O)N(c1ccc(Oc3ccc(N4C(=O)c5ccc(-c6c(-c7ccccc7)c(-c7ccccc7)c(-c7ccc(Oc8ccc(-c9c(-c%10ccccc%10)c(-c%10ccccc%10)c(*)c(-c%10ccccc%10)c9-c9ccccc9)cc8)cc7)c(-c7ccccc7)c6-c6ccccc6)cc5C4=O)cc3)cc1)C2=O` (repeat unit), for which the glass transition temperature worked out at 329.00 °C. Under `*c1ccc2c(c1)C(=O)N(c1ccc(Oc3ccc(N4C(=O)c5ccc(-c6c(-c7ccccc7)c(-c7ccccc7)c(-c7ccc(Sc8ccc(-c9c(-c%10ccccc%10)c(-c%10ccccc%10)c(*)c(-c%10ccccc%10)c9-c9ccccc9)cc8)cc7)c(-c7ccccc7)c6-c6ccccc6)cc5C4=O)cc3)cc1)C2=O` (repeat unit) stands 322.00 °C.

`*c1ccc2c(c1)C(=O)N(c1ccc(Oc3ccc(N4C(=O)c5ccc(C(*)(C(F)(F)F)C(F)(F)F)cc5C4=O)cc3)c(O)c1)C2=O` (repeat unit) returned a glass transition temperature of 292.00 °C. Compound `*c1ccc2c(c1)C(=O)N(c1ccc(Oc3ccc(N4C(=O)c5ccc(C(*)O[Si](C)(C)C)cc5C4=O)cc3)cc1)C2=O` (repeat unit) gave a glass transition temperature of 210.00 °C. `*c1ccc2c(c1)C(=O)N(c1ccc(Oc3ccc(N4C(=O)c5ccc(C(F)(F)C(F)(F)C(F)(F)C(*)(F)F)cc5C4=O)cc3)cc1)C2=O` (repeat unit): the glass transition temperature stood at 212.00 °C. As to `*c1ccc2c(c1)C(=O)N(c1ccc(Oc3ccc(N4C(=O)c5ccc(C(F)(F)C(F)(F)C(F)(F)C(F)(F)C(F)(F)C(*)(F)F)cc5C4=O)cc3)cc1)C2=O` (repeat unit), the glass transition temperature was determined as 185.00 °C. As for `*c1ccc2c(c1)C(=O)N(c1ccc(Oc3ccc(Oc4ccc(N5C(=O)c6ccc(C(*)(C(F)(F)F)C(F)(F)F)cc6C5=O)cc4)cc3)cc1)C2=O` (repeat unit), the glass transition temperature amounted to 279.00 °C. For the compound `*c1ccc2c(c1)C(=O)N(c1ccc(Oc3cccc(-c4cc(-c5ccccc5)cc(-c5cccc(Oc6ccc(N7C(=O)c8ccc(C(*)(C(F)(F)F)C(F)(F)F)cc8C7=O)cc6)c5)n4)c3)cc1)C2=O` (repeat unit), the glass transition temperature worked out at 180.00 °C. `*c1ccc2c(c1)C(=O)N(c1ccc(Oc3ccccc3-c3ccccc3Oc3ccc(N4C(=O)c5ccc(C(*)(C(F)(F)F)C(F)(F)F)cc5C4=O)cc3)cc1)C2=O` (repeat unit): the glass transition temperature was found to be 78.00 °C.

On to `*c1ccc2c(c1)C(=O)N(c1ccc(S(=O)(=O)c3ccc(S(=O)(=O)c4ccc(N5C(=O)c6ccc(C(*)(C(F)(F)F)C(F)(F)F)cc6C5=O)cc4)cc3)cc1)C2=O` (repeat unit), for which the glass transition temperature is 331.00 °C. For `*c1ccc2c(c1)C(=O)N(c1ccc(Sc3ccc(Sc4ccc(N5C(=O)c6ccc(C(*)(C(F)(F)F)C(F)(F)F)cc6C5=O)cc4)cc3)cc1)C2=O` (repeat unit), the glass transition temperature turned out to be 257.00 °C. `*c1ccc2c(c1)C(=O)N(c1ccc(Sc3ccc(Sc4ccc(Sc5ccc(Sc6ccc(N7C(=O)c8ccc(C(*)(C(F)(F)F)C(F)(F)F)cc8C7=O)cc6)cc5)cc4)cc3)cc1)C2=O` (repeat unit) yielded a glass transition temperature of 216.00 °C. The compound `*c1ccc2c(c1)C(=O)N(c1ccc3c(c1)-c1cc(N4C(=O)c5ccc(C(*)(C(F)(F)F)C(F)(F)F)cc5C4=O)ccc1C3)C2=O` (repeat unit) showed a glass transition temperature of 394.00 °C.

As to `*c1ccc2c(c1)C(=O)N(c1cccc(C(F)(F)C(F)(F)C(F)(F)C(F)(F)C(F)(F)c3cccc(N4C(=O)c5ccc(C(F)(F)C(F)(F)C(*)(F)F)cc5C4=O)c3)c1)C2=O` (repeat unit), the glass transition temperature amounted to 111.00 °C. For `*c1ccc2c(c1)C(=O)N(c1cccc(C(F)(F)C(F)(F)C(F)(F)C(F)(F)C(F)(F)c3cccc(N4C(=O)c5ccc(C(F)(F)C(F)(F)C(F)(F)C(*)(F)F)cc5C4=O)c3)c1)C2=O` (repeat unit), the glass transition temperature came to 144.00 °C.

Turning to `*c1ccc2c(c1)C(=O)N(c1cccc(C(F)(F)C(F)(F)C(F)(F)c3cccc(N4C(=O)c5ccc(C(F)(F)C(F)(F)C(*)(F)F)cc5C4=O)c3)c1)C2=O` (repeat unit), the glass transition temperature was 157.00 °C. Under `*c1ccc2c(c1)C(=O)N(c1cccc(C(c3ccccc3)(c3cccc(N4C(=O)c5ccc(C(*)(C(F)(F)F)C(F)(F)F)cc5C4=O)c3)C(F)(F)F)c1)C2=O` (repeat unit) stands 305.00 °C; under `*c1ccc2c(c1)C(=O)N(c1cccc(NC(=O)C(F)(F)C(F)(F)C(F)(F)C(F)(F)C(=O)Nc3cccc(N4C(=O)c5ccc(C(*)(C(F)(F)F)C(F)(F)F)cc5C4=O)c3)c1)C2=O` (repeat unit), 232.00 °C; under `*c1ccc2c(c1)C(=O)N(c1cccc(NC(=O)C(F)(F)C(F)(F)C(F)(F)C(F)(F)C(F)(F)C(F)(F)C(=O)Nc3cccc(N4C(=O)c5ccc(C(*)(C(F)(F)F)C(F)(F)F)cc5C4=O)c3)c1)C2=O` (repeat unit), 218.00 °C. Take `*c1ccc2c(c1)C(=O)N(c1cccc(Oc3cc(Oc4cccc(N5C(=O)c6ccc(C(*)(C(F)(F)F)C(F)(F)F)cc6C5=O)c4)ccc3P(=O)(c3ccccc3)c3ccccc3)c1)C2=O` (repeat unit): the glass transition temperature came out at 230.00 °C. `*c1ccc2c(c1)C(=O)N(c1cccc(Oc3ccc(N4C(=O)c5ccc(-c6c(-c7ccccc7)c(-c7ccccc7)c(-c7ccc(Sc8ccc(-c9c(-c%10ccccc%10)c(-c%10ccccc%10)c(*)c(-c%10ccccc%10)c9-c9ccccc9)cc8)cc7)c(-c7ccccc7)c6-c6ccccc6)cc5C4=O)cc3)c1)C2=O` (repeat unit) had a glass transition temperature of 300.00 °C. The compound `*c1cccc(N2C(=O)c3ccc(-c4cccc5c4C(=O)N(*)C5=O)cc3C2=O)c1` (repeat unit) showed a glass transition temperature of 341.00 °C. Compound `*c1cccc(N2C(=O)c3ccc(P(=O)(c4ccccc4)c4ccc5c(c4)C(=O)N(*)C5=O)cc3C2=O)c1` (repeat unit) registered a glass transition temperature of 323.00 °C. `*c1cccc(OCCCCCCCCCCOc2cccc(N3C(=O)c4ccc(-c5cccc6c5C(=O)N(*)C6=O)cc4C3=O)c2)c1` (repeat unit) gave a glass transition temperature of 127.00 °C. `*c1cccc(OCCCCCCOc2cccc(N3C(=O)c4ccc(-c5ccc6c(c5)C(=O)N(*)C6=O)cc4C3=O)c2)c1` (repeat unit) yielded a glass transition temperature of 153.00 °C. In turn, `*c1cccc(OCCCOc2cccc(N3C(=O)c4ccc(-c5ccc6c(c5)C(=O)N(*)C6=O)cc4C3=O)c2)c1` (repeat unit) showed a glass transition temperature of 184.00 °C. Regarding `*c1cccc(Oc2ccc(P(=O)(c3ccccc3)c3ccccc3)c(Oc3cccc(N4C(=O)c5ccc(-c6ccc7c(c6)C(=O)N(*)C7=O)cc5C4=O)c3)c2)c1` (repeat unit), the glass transition temperature was 234.00 °C.
